Read-outs that look alike come from different tables or passages of the source. Marks after values point to notes of the source that are not given here.
Key:
[1] = set-up: method as in PMID 19462989; details: non-enzymatic, cited from earlier work; for half-life for the disappearance: pH 7.5, 25 °C
[2] = system: hog liver carboxyesterase (HLE); set-up: method as in PMID 19462989; details: cited from earlier work
[3] = system: hog liver carboxyesterase (HLE); assay: Hog liver carboxyesterase (HLE)-catalyzed hydrolysis/deprotection followed by HPLC; assay type: in vitro ADME; details: for half-life at 0.4 mmol L^-1: hog liver carboxyesterase (HLE); for level of accumulation of the intermediate, of the initial concentration of 1: during HLE (26 units mL^-1) hydrolysis of 1, pH 7.5, 37 °C
Description: The subsequent retro-aldol condensation of 14 to diester 4 ([M+H]^+ = 595.3; Reaction C) was, however, so fast that the amount of 14 remained less than 5% of the initial concentration of 1.
The reactions were carried out in sealed tubes immersed in a thermostated water bath (37.0 ± 0.1 °C). The oxonium ion concentration of the reaction solution (3.5 mL) was adjusted with glycine, 2-[4-(2-hydroxyethyl)piperazin-1-yl)]ethanesulfonic acid (HEPES) and 2-(N-morpholino)ethanesulfonic acid (MES) buffers. The ionic strength of the solutions was adjusted to 0.1 mol L^-1 with sodium chloride. The hydronium ion concentration of the buffer solutions was calculated with the aid of the known pKa values of the buffer acid under the experimental conditions. The initial substrate concentration was ca. 0.4 mmol L^-1.
The enzymatic hydrolysis was carried out with Hog Liver Esterase (26 units mL^-1) in a 2-[4-(2-hydroxyethyl)piperazin-1-yl)]ethanesulfonic acid (HEPES) buffer (0.040/0.024 mol L^-1) at pH 7.5 and 37 °C. The samples (200 μL) withdrawn at appropriate intervals were made acidic (pH 2) with 1 mol L^-1 aqueous hydrogen chloride to inactivate the enzyme and to quench the hydrolysis, cooled in an ice-bath and filtered with minisart RC 4 filters (0.45 μm). The composition of the samples was analyzed on an ODS Hypersil C18 column (4 × 250 mm 5 μm, flow rate 1 mL min^-1), using a mixture of acetic acid/sodium acetate buffer (0.045/0.015 mol L^-1) and MeCN, containing ammonium chloride (0.1 mol L^-1). A good separation of the product mixtures of 2 was obtained on using a 5 min isocratic elution with the buffer containing 2% MeCN, followed by a linear gradient (23 min) up to 40.0% MeCN. Signals were recorded on a UV-detector at a wavelength of 267 nm. The reaction products were identified by the mass spectra (LC/MS) using a mixture of water and acetonitrile containing a formic acid (0.1%) as an eluent (Gemini C18 column (2 × 150 mm 5 μm, flow rate 200 μL min^-1). The first order rate constants for the non-enzymatic hydrolysis of triester 1 were obtained by applying first-order rate-law to the diminution of the concentration of the starting material. The enzymatic deacetylations obeyed first-order kinetics at the high HLE concentrations employed.

[4] = Non-enzymatic hydrolysis (hydrolytic stability) in buffer followed by RP HPLC; assay type: physicochemical; details: pH 7.5, 37 °C
Description: Hydrolysis of triester 1 was studied at pH 7.5 and 37 °C by analyzing the composition of the aliquots withdrawn from the reaction mixture at appropriate time intervals by RP HPLC. The products formed were identified by spiking with authentic samples and by mass spectrometric analysis (HPLC/ESI-MS). At pH 7.5-10, hydrolysis of the first acetic ester linkages of 1 (Reaction A in Scheme 4) was first-order in hydroxide-ion concentration. […] The subsequent departure of the remnants of this protecting group by retro-aldol condensation gave diester 4 (Route C) without accumulation of the monodeacetylated triester 14 as an intermediate. […]
The reactions were carried out in sealed tubes immersed in a thermostated water bath (37.0 ± 0.1 °C). […] The hydronium ion concentration of the buffer solutions was calculated with the aid of the known pKa values of the buffer acid under the experimental conditions. […]
The enzymatic hydrolysis was carried out with Hog Liver Esterase (26 units mL^-1) in a 2-[4-(2-hydroxyethyl)piperazin-1-yl)]ethanesulfonic acid (HEPES) buffer (0.040/0.024 mol L^-1) at pH 7.5 and 37 °C. […] The composition of the samples was analyzed on an ODS Hypersil C18 column (4 × 250 mm 5 μm, flow rate 1 mL min^-1), using a mixture of acetic acid/sodium acetate buffer (0.045/0.015 mol L^-1) and MeCN, containing ammonium chloride (0.1 mol L^-1). […]

[5] = system: hog liver carboxyesterase (HLE); assay: HLE-triggered hydrolysis in the presence of glutathione (GSH), followed by HPLC-ESI-MS; assay type: in vitro ADME; details: [GSH] = 5.4 mM
Description: The hydrolytic reactions of 1 was also carried out in the presence of glutathione ([GSH] = 5.4 mM) and carboxyesterase ([HLE] = 28.0 units mL^-1) in a 2-(N-morpholino)ethanesulfonic acid (MES) buffer (0.005/0.005 mol L^-1) at pH 6.2 and 37 °C. Under these conditions, the half-live for the deacetylation of 1 was 18 h. In 2 days, the starting material was converted almost quantitatively to a mixture of acetylated and deacetylated phosphodiester 4 and 16 ([4]/[16] is 1:1). At this stage, 2-cyano-N-(2-phenyl)ethylacrylamide (17) was captured as the glutathione conjugate (18; tR = 24.3 min, Route E). Product 18 was detected by both HPLC and LC-MS analysis ([M+H]^+ = 508.8; see Figure 3). In addition, glutathione was converted to its oxidized form glutathione disulfide (GSSG; [M+H]^+ = 613.5 and tR = 9.9 min).
The reactions were carried out in sealed tubes immersed in a thermostated water bath (37.0 ± 0.1 °C). The oxonium ion concentration of the reaction solution (3.5 mL) was adjusted with glycine, 2-[4-(2-hydroxyethyl)piperazin-1-yl)]ethanesulfonic acid (HEPES) and 2-(N-morpholino)ethanesulfonic acid (MES) buffers. The ionic strength of the solutions was adjusted to 0.1 mol L^-1 with sodium chloride. The hydronium ion concentration of the buffer solutions was calculated with the aid of the known pKa values of the buffer acid under the experimental conditions. […]

[6] = HLE 26 units mL^-1, pH 7.5, 37 °C
[7] = HLE 26 units mL^-1, pH 7.5, 25 °C

CCOC(=O)C(COCOC(C)=O)(COP(=O)(OC[C@H]1O[C@@H](n2cc(C)c(=O)[nH]c2=O)C[C@@H]1O)OCC(COCOC(C)=O)(C(=O)OCC)C(=O)OCC)C(=O)OCC [compound 2, thymidine 5´-bis[3-acetyloxymethoxy-2,2-bis(ethoxycarbonyl)propyl]phosphate]
half-life, first of the consecutive deacetylations ([1]; pH 7.5, 37 °C): 32 h
t1/2 Reaction A [2, 6]: 0.17 min
t1/2 Reaction B [2, 6]: 0.90 min
t1/2 Reaction C [2, 6]: 10.4 min
t1/2 Reaction D [2, 6]: 3.5 h

CC(=O)OCC(C#N)(COP(=O)(O)OCC1OC(n2cc(C)c(=O)[nH]c2=O)CC1O)C(=O)NCCc1ccccc1 (stereo not shown) [compound 4]
half-life at 0.4 mmol L^-1 ([3]; hog, HLE 26 units mL^-1, pH 7.5, 37 °C, read-out: half-life for the disappearance (converted)): 47 h

CC(=O)OCC(C#N)(COP(=O)(OCC1OC(n2cc(C)c(=O)[nH]c2=O)CC1O)OCC(C#N)(COC(C)=O)C(=O)NCCc1ccccc1)C(=O)NCCc1ccccc1 (stereo not shown) [compound 1, Thymidine 5´-bis[3-acetyloxy-2-cyano-2-(2-phenylethylcarbamoyl)propyl]phosphate]
half-life at 0.4 mmol L^-1 ([4]; aqueous buffer (glycine, HEPES or MES buffers), no enzyme, read-out: half-life, hydrolysis of the first acetic ester linkage (Reaction A) (converted)): 28 h
first-order rate constant k, hydrolysis of the first acetic ester linkage (Reaction A) [4]: 7e-06 s⁻¹
conversion to 5´-TMP, times as fast as 3 (comparison of half-lives of Reaction D) ([3]; HLE, pH 7.5, 37 °C): 3 times
half-life at 0.4 mmol L^-1 ([3]; pig, HLE 26 units mL^-1, pH 7.5, 37 °C, I = 0.1 mol L^-1, read-out: t1/2 Reaction A (enzymatic deacetylation of triester, disappearance of starting material)): 0.0633 h
half-life at 0.4 mmol L^-1 ([5]; hog, [HLE] = 28.0 units mL^-1, MES buffer, pH 6.2, 37 °C, read-out: half-life for the deacetylation (converted)): 18 h

C=C(C#N)C(=O)NCCc1ccccc1 [compound 17, 2-cyano-N-(2-phenylethyl)acrylamide]
capture of the electrophilic by-product by glutathione ([5]; [HLE] = 28.0 units mL^-1, pH 6.2, 37 °C, detected as conjugate 18): largely trapped by glutathione

CCOC(=O)C(COC(C)=O)(COP(=O)(OC[C@H]1O[C@@H](n2cc(C)c(=O)[nH]c2=O)C[C@@H]1O)OCC(COC(C)=O)(C(=O)OCC)C(=O)OCC)C(=O)OCC [compound 3, thymidine 5´-bis[3-acetyloxy-2,2-bis(ethoxycarbonyl)propyl]phosphate]
half-life for the disappearance [1]: 20 days
t1/2 Reaction B [2, 7]: 31^a min
t1/2 Reaction C [2, 7]: 31^a min
t1/2 Reaction A [2, 6]: 3.2 min
t1/2 Reaction D [2, 6]: 151 h

CC(=O)OCC(C#N)(COP(=O)(OCC1OC(n2cc(C)c(=O)[nH]c2=O)CC1O)OCC(C#N)(CO)C(=O)NCCc1ccccc1)C(=O)NCCc1ccccc1 (stereo not shown) [compound 14]
share of deacetylation to 15 (Reaction B) in the total disappearance of 14 [3, 6]: approximately 10%
share of retro-aldol condensation to diester 4 in the overall breakdown of 14 ([3]; HLE, pH 7.5, 37 °C): 90%
level of accumulation of the intermediate, of the initial concentration of 1 [3]: less than 5%

Cc1cn(C2CC(O)C(COP(=O)(O)OCC(C#N)(CO)C(=O)NCCc3ccccc3)O2)c(=O)[nH]c1=O (stereo not shown) [compound 16]
level of accumulation of the intermediate, of the initial concentration of 1 [3]: below 5%

CCOC(=O)C(COC(C)=O)(COP(=O)(O)OC[C@H]1O[C@@H](n2cc(C)c(=O)[nH]c2=O)C[C@@H]1O)C(=O)OCC [compound 6]
half-life for the disappearance [1]: 160.4 days

— article PMC6259260, “3-Acetyloxy-2-cyano-2-(alkylaminocarbamoyl)propyl Groups as Biodegradable Protecting Groups of Nucleoside 5´-mono-Phosphates” (Molecules, 2011)
